Assay [1] relates to SARS-CoV-2. In words: (§1) Functional immunofluorescence assay to measure dose dependent changes in antiviral-drug inhibitory efficacy against hCoV-19/USA-WA1/2020 in iPSC-Pneumocyte cells which are seeded prior to treatment, then infected with hCoV-19/USA-WA1/2020. Cells are fixed with 10 % formaldehyde, washed with PBS, permeabilized with permeabilization buffer, then washed with wash buffer. The cells are incubated with nucleoprotein primary antibody IC7C7. Following primary staining, cells are washed with wash buffer and incubated in a solution of with Alexa fluor 488 and DAPI. Infected and uninfected cells are visualized and analyzed by Gen5 software. The assay has been performed by Icahn School of Medicine at Mount Sinai. Type of assay: organism-based, Homo sapiens. As to conditions: Severe acute respiratory syndrome coronavirus 2, Pneumocyte.

The test system of assay [2] is SARS-CoV-2. The assay is described as §1, with “hCoV-19/USA-WA1/2020 in HeLa-ACE2 cells which” for “hCoV-19/USA-WA1/2020 in iPSC-Pneumocyte cells which”, “prior to drug treatment, then” for “prior to treatment, then”. Type of assay: organism-based, Homo sapiens.
The test system of assay [3] is Middle East respiratory syndrome-related coronavirus. In words: microbe, parasite or virus in culture. As to conditions: Vero 76. It counts as functional, organism-based, Chlorocebus sabaeus.

We go through 1 compound from ChEMBL document CHEMBL5441381, “ASAP - In vitro antiviral effect” (2024).

Structures are written as SMILES.

Usually EC50 stands for the midpoint of the concentration-response curve. A word on the EC90: it is the concentration needed for an effect of 90%. A lower EC90 goes with an effect from little substance. Consider `CNC(=O)c1c[nH]c2ncnc(N[C@H](c3ccc4c(c3)S(=O)(=O)CCC4)C(C)C)c12`, for which the EC50 is 6.74 µM with SARS-CoV-2 [1]; over 20 µM with SARS-CoV-2 [2] (Severe acute respiratory syndrome coronavirus 2, HeLa-ACE2); over 32 µM in assay [3]. Further, the EC90 with SARS-CoV-2 [1] (Baseline response 0 %, Hill slope -0.412, Maximum measured 88.736 %, Maximum response 100 %, Minimum measured 31.934 %, R squared 0.862) was over 50 µM; with SARS-CoV-2 [2] (Severe acute respiratory syndrome coronavirus 2, HeLa-ACE2, Baseline response 0 %, Hill slope -10.584, Maximum measured 109.331 %, Maximum response 100 %, Minimum measured 66.391 %, R squared 0.561) it was over 20 µM.
